According to patent US8343458B2, “Probes for in vivo targeting of active cysteine proteases” (The Board of Trustees of the Leland Stanford Junior …, priority 2008, dated 2013):

Assays:
[1] = Octanol/water partition coefficient; format: physicochemical; settings: octanol / PBS pH 7.4, repeated 3 times
Description: Octanol/water partition coefficient. To determine the lipophilicity of ^64Cu-Z-FK(DOTA)-AOMK, approximately 370 kBq of ^64Cu-labeled complex in 500 μl of PBS (pH 7.4) was added to 500 μl of octanol in an eppendorf microcentrifuge tube. The resulting biphasic system was mixed vigorously for 10 min and left at room temperature for another 60 min. The two phases were then separated by centrifugation at 2000 g for 5 min (model 5415R Eppendorf microcentrifuge; Brinkman, Westbury, N.Y.). From each layer, an aliquot of 100 μl was removed and counted in a γ-counter (Packard Instruments). The partition coefficient (log P) was then calculated as a ratio of counts in the octanol fraction to the counts in the water fraction. The experiment was repeated 3 times. The lipophilicity of the probe affects its in vivo pharmacokinetics, and should be modest (˜0), with hydrophobic and hydrophilic groups present. For further details, see Lin et al., “Role of Pharmacokinetics and Metabolism in Drug Discovery and Development,” Pharmacological Reviews, Vol. 49, Issue 4, 403-449, December 1997.

[2] = tested on: cathepsins B and L; assay: Labeling of intact tumor cells (SDS-PAGE, gel scan); format: cell-based, mouse (C2C12/Ras), human (MDA-MB-435); settings: C2C12/Ras and MDA-MB-435 cells, 555 KBq probe in culture medium for 2 h
Excerpt: FIG. 2 is a series of figures which, taken together, show the structure and function of representative in vivo probes. FIG. 2A is a schematic drawing of a chelator—conjugated probe, illustrating several component moieties. FIGS. 2B and 2C are gels showing expression and activity of enzyme targets of such probe, with a radionuclide label attached to the illustrated structure, showing the expression and activity of CB in a mouse myoblast cell line C2C12Ras and human breast cancer cell line MDA-MB-435. […] Cells were pretreated with JPM-OEt (50 μM) (+) or with control DMSO (0.1%) (−) for 2 h and labeled by addition of ^64Cu-Z-FK(DOTA)-AOMK (555 KBq, 15 μCi) to culture medium for 2 h. Cells were collected, lysed and analyzed after SDS-PAGE. The labeled proteases were visualized by scanning of the gel with a Typhoon 9410 imager.
Before applying the radiolabel probe in vivo we first tested the ability of the probe to label multiple tumor cell lines grown in vitro. We initially examined the labeling of the human breast cancer cell line MBA-MB-435 and a mouse myoblastoma cell line that had been transformed by overexpression of the ras oncogene (C2C12/Ras). Both of these cell lines were used for in vivo imaging studies with the NIRF-labeled cysteine cathepsin probes. To confirm earlier studies of these cells using the NIRF probes we labeled them with general Cy5-labeled probe GB123 (FIG. 1C). […] Labeling of the same cells with ^64Cu-Z-FK(DOTA)-AOMK confirmed that the DOTA produced a similar labeling pattern to that observed for the NIRF probe GB123.
C2C12/Ras and MDA-MB-435 cells (0.25 M each well) were seeded in a six-well plate one day before the study. Cells were pretreated with the general papain family protease inhibitor JPM-OEt (50 μM^28) or with control DMSO (0.1%) for 1 h and labeled by addition of ^64Cu-Z-FK(DOTA)-AOMK (555 KBq, 15 μCi) to culture medium for 2 h. Cells was then washed with PBS and lysed. Equal amounts of protein per lane were separated by 12% SDS-PAGE. […] The labeled bands were quantified with ImageJ 1.36b (public domain software from National Institute of Health).

Cc1cccc(C)c1C(=O)OCC(=O)[C@H](CCCCNC(=O)CN1CCN(CC(=O)[O-])CCN(CC(=O)O)CCN(CC(=O)[O-])CC1)NC(=O)[C@H](Cc1ccccc1)NC(=O)OCc1ccccc1.[64Cu+2] [^64Cu-Z-FK(DOTA)-AOMK]
log P (octanol-water partition coefficient) [1]: −0.10±0.04
Labeling of active cathepsins in intact cells [2]: efficiently modifies active cathepsins B and L
